Laboratory results: US20070161807A1, “Method for manufacturing optically pure coumaryl amino acids and the novel coumaryl aminoacids thus obtained” (INSERM (INSTITUT NATIONAL DE LA SANT'E ET DE LA RECHERCHE …, priority 2004, published 2007)

Assay: Physicochemical properties: absorption and fluorescence (Table 1)
Settings: for Abs. (nm): absorption wavelength; for Abs. (nm) / Em. (nm): determined in 95% ethanol; for Em. (nm): emission wavelength

Row | QY quantum yield | ε (cm^−1 M^−1) extinction coefficient [cm⁻¹ M⁻¹] | Abs. (nm) | Em. (nm) | SMILES
1 | 0.49 | 9000 | 329 | 464 | N[C@@H](Cc1cc(=O)oc2cc(O)ccc12)C(=O)O.O=C(O)C(F)(F)F [Example 6, (1S)-1-carboxy-2-(7-hydroxy-2-oxo-2H-chromen-4-yl)-ethyl ammonium trifluoroacetate]
2 | 0.18 | 12000 | 324 | 383 | COc1ccc2c(C[C@H](N)C(=O)O)cc(=O)oc2c1.CS(=O)(=O)O [Example 7, (1S)-1-carboxy-2-(7-methoxy-2-oxo-2H-chromen-4-yl)-ethyl ammonium methanesulfonate]
3 | 0.15 | 14000 | 323 | 386 | COc1ccc2c(C[C@@H](N)C(=O)O)cc(=O)oc2c1.O=C(O)C(F)(F)F [Example 8, (1R)-1-carboxy-2-(7-methoxy-2-oxo-2H-chromen-4-yl)-ethyl ammonium trifluoroacetate]
4 | 0.60 | 12000 | 345 | 445 | COc1cc2oc(=O)cc(C[C@H](N)C(=O)O)c2cc1OC.O=C(O)C(F)(F)F [Example 9, (1S)-1-carboxy-2-(6,7-dimethoxy-2-oxo-2H-chromen-4-yl)-ethyl ammonium trifluoroacetate]
5 | 0.54 | 10300 | 331 | 465 | N[C@@H](Cc1cc(=O)oc2cc(O)c(Cl)cc12)C(=O)O.O=C(O)C(F)(F)F [Example 10, (1S)-1-carboxy-2-(6-chloro, 7-hydroxy-2-oxo-2H-chromen-4-yl)-ethyl ammonium trifluoroacetate]
6 | 0.17 | 13300 | 325 | 387 | CCOc1ccc2c(C[C@H](N)C(=O)O)cc(=O)oc2c1.O=C(O)C(F)(F)F [Example 11, (1S)-1-carboxy-2-(7-ethoxy-2-oxo-2H-chromen-4-yl)-ethyl ammonium trifluoroacetate]
7 | 0.50 | 6800 | 329 | 421 | COc1cc(O)c2c(C[C@H](N)C(=O)O)cc(=O)oc2c1.O=C(O)C(F)(F)F [Example 12, (1S)-1-carboxy-2-(5-hydroxy, 7-methoxy-2-oxo-2H-chromen-4-yl)-ethyl ammonium trifluoroacetate]
8 | 0.18 | 12700 | 323 | 421 | COc1cc(O)cc2oc(=O)cc(C[C@H](N)C(=O)O)c12.O=C(O)C(F)(F)F [Example 13, (1S)-1-carboxy-2-(7-hydroxy, 5-methoxy-2-oxo-2H-chromen-4-yl)-ethyl ammonium trifluoroacetate]
9 | 0.39 | 11500 | 324 | 419 | COc1cc(OC)c2c(C[C@H](N)C(=O)O)cc(=O)oc2c1.O=C(O)C(F)(F)F [Example 14, (1S)-1-carboxy-2-(5,7-dimethoxy-2-oxo-2H-chromen-4-yl)-ethyl ammonium trifluoroacetate]
10 | – | 11800 | 327 | 463 | N[C@@H](Cc1cc(=O)oc2cc(O)cc(O)c12)C(=O)O.O=C(O)C(F)(F)F [Example 15, (1S)-1-carboxy-2-(5,7-dihydroxy-2-oxo-2H-chromen-4-yl)-ethyl ammonium trifluoroacetate]
11 | 0.21 | 12500 | 321 | 380 | COc1ccc2c(CC[C@H](N)C(=O)O)cc(=O)oc2c1.O=C(O)C(F)(F)F [Example 16, (1S)-1-carboxy-3-(7-methoxy-2-oxo-2H-chromen-4-yl)-propyl ammonium trifluoroacetate]
12 | 0.17 | 14600 | 322 | 381 | COc1ccc2c(CC[C@H](N)C(=O)OCc3ccccc3)cc(=O)oc2c1.O=C(O)C(F)(F)F [Example 17, (1S)-1-benzyloxycarbonyl-3-(7-methoxy-2-oxo-2H-chromen-4-yl)-propyl ammonium trifluoroacetate]
13 | 0.13 | 1400 | 274 | 303 | N[C@@H](Cc1ccc(O)cc1)C(=O)O [Y, tyrosine, reference compound]

Row | SMILES | QY quantum yield | ε (cm^−1 M^−1) extinction coefficient [cm⁻¹ M⁻¹] | Abs. (nm) | Em. (nm)
14 | N[C@@H](Cc1c[nH]c2ccccc12)C(=O)O [W, tryptophan, reference compound] | 0.12 | 5300 | 278 | 352
